Laboratory results from patent publication US20260022142A1, “MACROCYCLIC IMMUNOMODULATORS” (Bristol-Myers Squibb Company, priority 2022, published 2026).
Bridge positions count the residues as written; N and C are the ends. Square brackets hold non-standard residues; d marks the D form. Peptide text beside a SMILES is read from it. * marks the point of attachment. ξ: configuration not given here. Trp(βS-Me) = C[C@@H](c1c[nH]c2ccccc12)[C@H](N)C(=O)O; Phe(4-COOH) = N[C@@H](Cc1ccc(C(=O)O)cc1)C(=O)O; Bip = N[C@@H](Cc1ccc(-c2ccccc2)cc1)C(=O)O; Tyr(3-F) = N[C@@H](Cc1ccc(O)c(F)c1)C(=O)O; Phe(3-Me) = Cc1cccc(C[C@H](N)C(=O)O)c1; NH(CH2)12COOH = O=C(O)CCCCCCCCCCCCN*; Val(3-OH) = CC(C)(O)[C@H](N)C(=O)O; hArg = N=C(N)NCCCC[C@H](N)C(=O)O; 4Pal = N[C@@H](Cc1ccncc1)C(=O)O; Cha = N[C@@H](CC1CCCCC1)C(=O)O; Ile(3ξ) = CCC(C)[C@H](N)C(=O)O; dCha = N[C@H](CC1CCCCC1)C(=O)O; Thr(3ξ) = CC(O)[C@H](N)C(=O)O; Carboxymethyl = O=C(O)C*; Orn = NCCC[C@H](N)C(=O)O; Pra = C#CC[C@H](N)C(=O)O; Aun = NCCCCCCCCCCC(=O)O; Dab = NCC[C@H](N)C(=O)O; Dap = NC[C@H](N)C(=O)O; AEEA = NCCOCCOCC(=O)O; Ac3c = NC1(C(=O)O)CC1

Each compound was assayed against T1, PD-1/PD-L1 interaction (PE-labeled human PD-L1-Ig binding to Jurkat cell line over-expressing human PD-1) (Homo sapiens, UniProt Q15116) (assay: Jurkat-PD-1 Cell Binding High-Content Screening Assay (CBA)). Conditions: Jurkat cell line over-expressing human PD-1; PE-labeled PD-L1-Ig 20 nM final; read-out: Jurkat hPD1-PDL1 IC50.
T1 construct: expressed in transfected cells; host or cells: Jurkat
T1 sequence (Q15116 25-288): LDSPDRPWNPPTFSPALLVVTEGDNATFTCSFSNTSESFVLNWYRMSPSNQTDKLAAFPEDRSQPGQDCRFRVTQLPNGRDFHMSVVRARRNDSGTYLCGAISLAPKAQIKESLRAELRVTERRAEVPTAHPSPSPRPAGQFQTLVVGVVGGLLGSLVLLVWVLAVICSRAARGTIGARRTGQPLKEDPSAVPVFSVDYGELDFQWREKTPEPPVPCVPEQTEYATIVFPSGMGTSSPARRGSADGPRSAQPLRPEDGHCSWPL
Format: cell-based
Outline: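 Read-out is high-content imaging of cell-bound phycoerythrin-tagged PD-L1-Ig on fixed, Hoechst-counterstained Jurkat cells that over-express human PD-1. Compound exposure lasts 2 h at 37° C before the labeled ligand (20 nM final) is added for a further hour.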

IC50 [µM] | Structure (SMILES)
0.0497 | CC(C)C[C@H]1NC(=O)[C@H](CCCN)NC(=O)[C@H](Cc2ccc(O)cc2)NC(=O)[C@H](Cc2ccc(-c3ccccc3)cc2)NC(=O)[C@H](Cc2ccc(O)cc2)NC(=O)[C@H](Cc2c[nH]c3ccccc23)NC(=O)[C@H](CC(=O)O)NC(=O)[C@H](Cc2ccc(OCC(=O)O)cc2)NC(=O)[C@H](Cc2ccc(OCC(=O)O)cc2)NC(=O)CSC[C@@H](C(=O)N[C@@H](CCN)C(=O)NCCCCCCCCCCC(=O)O)NC(=O)[C@H](CN)NC(=O)[C@H](Cc2ccc(O)cc2)NC(=O)[C@H](CC2CCCCC2)NC(=O)[C@H](CCN)NC1=O [Compound 2514] ({CH2CO}-Y(Carboxymethyl)Y(Carboxymethyl)DWY[Bip]Y[Orn][dL][Dab][Cha]Y[Dap]C[Dab][Aun]-OH; thioether N-14)
0.0199 | CC(C)C[C@@H]1NC(=O)[C@H](Cc2c[nH]c3ccccc23)NC(=O)[C@H](CC(=O)O)NC(=O)[C@H](Cc2ccc(OCC(=O)O)cc2)NC(=O)[C@H](CN)NC(=O)CSC[C@@H](C(=O)N[C@@H](CCN)C(=O)NCCCCCCCCCCC(=O)O)NC(=O)[C@H](CCCN)NC(=O)[C@H](C(C)O)NC(=O)[C@H](CC2CCCCC2)NC(=O)[C@H](CCN)NC(=O)[C@@H](CC(C)C)NC(=O)[C@H](CCCN)NC(=O)[C@H](C(C)C)NC(=O)[C@H](Cc2ccc(-c3ccccc3)cc2)NC1=O (stereo partly drawn) [Compound 3687] ({CH2CO}-[Dap]Y(Carboxymethyl)DWL[Bip]V[Orn][dL][Dab][Cha][Thr(3ξ)][Orn]C[Dab][Aun]-OH; thioether N-14)
0.0138 | C#CC[C@H](NC(=O)COCCOCCNC(=O)[C@@H]1CSCC(=O)N[C@@H](Cc2ccncc2)C(=O)N[C@@H](Cc2ccc(OCC(=O)O)cc2)C(=O)N[C@@H](CC(=O)O)C(=O)N[C@@H](Cc2c[nH]c3ccccc23)C(=O)N[C@@H](C(C)C)C(=O)N[C@@H](Cc2ccc(-c3ccccc3)cc2)C(=O)N[C@@H]([C@@H](C)CC)C(=O)N[C@@H](CCCN)C(=O)N[C@H](CC(C)C)C(=O)N[C@@H](CCN)C(=O)N[C@@H](CC(C)C)C(=O)N[C@@H](C(C)C)C(=O)N[C@@H]([C@@H](C)O)C(=O)N1)C(=O)N[C@@H](CCCNC(=N)N)C(=O)NCCCCCCCCCCC(=O)O [Compound 1215] ({CH2CO}-[4Pal]Y(Carboxymethyl)DWV[Bip]I[Orn][dL][Dab]LVTC[AEEA][Pra]R[Aun]-OH; thioether N-14)
0.0331 | CC(C)C[C@H]1NC(=O)[C@H](CCCN)NC(=O)[C@H](C(C)C)NC(=O)[C@H](Cc2ccc(-c3ccccc3)cc2)NC(=O)[C@H](C(C)C)NC(=O)[C@H](Cc2c[nH]c3ccccc23)NC(=O)[C@H](CC(=O)O)NC(=O)[C@H](Cc2ccc(OCC(=O)O)cc2)NC(=O)[C@H](CN)NC(=O)CSC[C@@H](C(=O)N[C@@H](C)C(=O)N[C@@H](CC(=O)O)C(=O)NCC(=O)NCCCCCCCCCCC(=O)O)NC(=O)[C@H]([C@@H](C)O)NC(=O)[C@H](C(C)C)NC(=O)[C@H](CC2CCCCC2)NC(=O)[C@H](Cc2cnc[nH]2)NC1=O [Compound 1089] ({CH2CO}-[Dap]Y(Carboxymethyl)DWV[Bip]V[Orn][dL]H[Cha]VTCADG[Aun]-OH; thioether N-14)
0.0524 | Cc1cccc(C[C@@H]2NC(=O)[C@H](CC(=O)O)NC(=O)[C@H](Cc3ccc(OCC(=O)O)cc3)NC(=O)[C@H](CCN)NC(=O)CSC[C@@H](C(=O)N[C@@H](CCN)C(=O)NCCOCCOCC(=O)NCCOCCOCC(=O)NCCCCCCCCCCCCC(=O)O)NC(=O)[C@H](CC(=O)O)NC(=O)[C@H](C(C)(C)O)NC(=O)[C@H](CC3CCCCC3)NC(=O)[C@H](Cc3c[nH]cn3)NC(=O)[C@@H](CC(C)C)NC(=O)[C@H](CCCN)NC(=O)[C@H](Cc3ccc(C(=O)O)cc3)NC(=O)[C@H](Cc3ccc(-c4ccccc4)cc3)NC(=O)[C@H](Cc3ccc(C(=O)O)cc3)NC2=O)c1 [Compound 2889] ({CH2CO}-[Dab]Y(Carboxymethyl)D[Phe(3-Me)][Phe(4-COOH)][Bip][Phe(4-COOH)][Orn][dL]H[Cha][Val(3-OH)]DC[Dab][AEEA][AEEA]-{NH(CH2)12COOH}; thioether N-14)
0.0588 | CC(C)C[C@H]1NC(=O)[C@H](CCCN)NC(=O)[C@H](Cc2ccc(O)cc2)NC(=O)[C@H](Cc2ccc(-c3ccccc3)cc2)NC(=O)[C@H](C(C)C)NC(=O)[C@H]([C@@H](C)c2c[nH]c3ccccc23)NC(=O)[C@H](CC(=O)O)NC(=O)[C@H](Cc2ccc(OCC(=O)O)cc2)NC(=O)[C@H](CCCNC(=N)N)NC(=O)CSC[C@@H](C(=O)NC2(C(=O)NCCCCCCCCCCC(=O)O)CC2)NC(=O)[C@H]([C@@H](C)O)NC(=O)[C@H](C(C)C)NC(=O)[C@H](CC2CCCCC2)NC(=O)[C@H](CCN)NC1=O [Compound 2133] ({CH2CO}-RY(Carboxymethyl)D[Trp(βS-Me)]V[Bip]Y[Orn][dL][Dab][Cha]VTC[Ac3c][Aun]-OH; thioether N-14)
0.0132 | Cc1cccc(C[C@@H]2NC(=O)[C@H](CC(=O)O)NC(=O)[C@H](Cc3ccc(OCC(=O)O)cc3)NC(=O)[C@H](CN)NC(=O)CSC[C@@H](C(=O)NCCCCCCCCCCC(=O)O)NC(=O)[C@H](CN)NC(=O)[C@H](C(C)C)NC(=O)[C@H](CC3CCCCC3)NC(=O)[C@H](CCN)NC(=O)[C@@H](CC(C)C)NC(=O)[C@H](CCCN)NC(=O)[C@H](C(C)C)NC(=O)[C@H](Cc3ccc(-c4ccccc4)cc3)NC(=O)[C@H](C(C)C)NC2=O)c1 [Compound 2604] ({CH2CO}-[Dap]Y(Carboxymethyl)D[Phe(3-Me)]V[Bip]V[Orn][dL][Dab][Cha]V[Dap]C[Aun]-OH; thioether N-14)

The remaining lines, values behind:

Structure (SMILES) | IC50 [µM]
CCC(C)[C@@H]1NC(=O)[C@H](CC2CCCCC2)NC(=O)[C@H](CCN)NC(=O)[C@@H](CC(C)C)NC(=O)[C@H](CCCN)NC(=O)[C@H](C(C)CC)NC(=O)[C@H](Cc2ccc(-c3ccccc3)cc2)NC(=O)[C@H](C(C)CC)NC(=O)[C@H](Cc2c[nH]c3ccccc23)NC(=O)[C@H](CC(=O)O)NC(=O)[C@H](Cc2ccc(OCC(=O)O)cc2)NC(=O)[C@H](C(C)O)NC(=O)CSC[C@@H](C(=O)N[C@H](CC(N)=O)C(=O)NCCOCCOCC(=O)N[C@@H](CCCN)C(=O)NCCCCCCCCCCC(=O)O)NC(=O)[C@H](CO)NC1=O (stereo partly drawn) [Compound 3120] ({CH2CO}-[Thr(3ξ)]Y(Carboxymethyl)DW[Ile(3ξ)][Bip][Ile(3ξ)][Orn][dL][Dab][Cha][Ile(3ξ)]SC[dN][AEEA][Orn][Aun]-OH; thioether N-14) | 0.0248
Cc1cccc(C[C@@H]2NC(=O)[C@H](CC(=O)O)NC(=O)[C@H](Cc3ccc(OCC(=O)O)cc3)NC(=O)[C@H](CN)NC(=O)CSC[C@@H](C(=O)N[C@@H](CCN)C(=O)NCCCCCCCCCCC(=O)O)NC(=O)[C@H]([C@@H](C)O)NC(=O)[C@H](C(C)C)NC(=O)[C@H](CC3CCCCC3)NC(=O)[C@H](CCN)NC(=O)[C@@H](CC(C)C)NC(=O)[C@H](CCCN)NC(=O)[C@H](Cc3ccc(O)cc3)NC(=O)[C@H](Cc3ccc(-c4ccccc4)cc3)NC(=O)[C@H](CC(C)C)NC2=O)c1 [Compound 2737] ({CH2CO}-[Dap]Y(Carboxymethyl)D[Phe(3-Me)]L[Bip]Y[Orn][dL][Dab][Cha]VTC[Dab][Aun]-OH; thioether N-14) | 0.0288
CC(C)C[C@H]1NC(=O)[C@H](CCCN)NC(=O)[C@H](Cc2ccc(OCC(=O)O)cc2)NC(=O)[C@H](Cc2ccc(-c3ccccc3)cc2)NC(=O)[C@H](Cc2ccc(O)cc2)NC(=O)[C@H](Cc2ccc(O)c(F)c2)NC(=O)[C@H](CC(=O)O)NC(=O)[C@H](Cc2ccc(OCC(=O)O)cc2)NC(=O)[C@H](CCCNC(=N)N)NC(=O)CSC[C@@H](C(=O)N[C@@H](CCN)C(=O)NCCCCCCCCCCC(=O)O)NC(=O)[C@H]([C@@H](C)O)NC(=O)[C@H](C(C)C)NC(=O)[C@H](CC2CCCCC2)NC(=O)[C@H](CCN)NC1=O [Compound 2105] ({CH2CO}-RY(Carboxymethyl)D[Tyr(3-F)]Y[Bip]Y(Carboxymethyl)[Orn][dL][Dab][Cha]VTC[Dab][Aun]-OH; thioether N-14) | 0.113
Cc1cccc(C[C@@H]2NC(=O)[C@H](CC(=O)O)NC(=O)[C@H](Cc3ccc(OCC(=O)O)cc3)NC(=O)[C@H](CN)NC(=O)CSC[C@@H](C(=O)N[C@@H](CCN)C(=O)NCCOCCOCC(=O)NCCCCCCCCCCC(=O)O)NC(=O)[C@H](CCCNC(=N)N)NC(=O)[C@H](C(C)C)NC(=O)[C@H](CC3CCCCC3)NC(=O)[C@H](CCN)NC(=O)[C@@H](CC3CCCCC3)NC(=O)[C@H](CCCN)NC(=O)[C@H](C(C)C)NC(=O)[C@H](Cc3ccc(-c4ccccc4)cc3)NC(=O)[C@H](C(C)C)NC2=O)c1 [Compound 2683] ({CH2CO}-[Dap]Y(Carboxymethyl)D[Phe(3-Me)]V[Bip]V[Orn][dCha][Dab][Cha]VRC[Dab][AEEA][Aun]-OH; thioether N-14) | 0.0149
CC(C)C[C@H]1NC(=O)[C@H](CCCN)NC(=O)[C@H](C(C)C)NC(=O)[C@H](Cc2ccc(-c3ccccc3)cc2)NC(=O)[C@H](C(C)C)NC(=O)[C@H](Cc2c[nH]c3ccccc23)NC(=O)[C@H](CC(=O)O)NC(=O)[C@H](Cc2c[nH]cn2)NC(=O)[C@H](CCCCNC(=N)N)NC(=O)CSC[C@@H](C(=O)N[C@@H](CCN)C(=O)NCCCCCCCCCCC(=O)O)NC(=O)[C@H](CCCCN)NC(=O)[C@H](C(C)C)NC(=O)[C@H](CC2CCCCC2)NC(=O)[C@H](CCN)NC1=O [Compound 3270] ({CH2CO}-[hArg]HDWV[Bip]V[Orn][dL][Dab][Cha]VKC[Dab][Aun]-OH; thioether N-14) | 0.032
Cc1cccc(C[C@@H]2NC(=O)[C@H](CC(=O)O)NC(=O)[C@H](Cc3ccc(OCC(=O)O)cc3)NC(=O)[C@H](CCCCNC(=N)N)NC(=O)CSC[C@@H](C(=O)N[C@@H](CCCN)C(=O)NCCCCCCCCCCC(=O)O)NC(=O)[C@H](CCCN)NC(=O)[C@H](C(C)C)NC(=O)[C@H](CC3CCCCC3)NC(=O)[C@H](CCN)NC(=O)[C@@H](CC(C)C)NC(=O)[C@H](CCCN)NC(=O)[C@H](C(C)C)NC(=O)[C@H](Cc3ccc(-c4ccccc4)cc3)NC(=O)[C@H](C(C)C)NC2=O)c1 [Compound 3247] ({CH2CO}-[hArg]Y(Carboxymethyl)D[Phe(3-Me)]V[Bip]V[Orn][dL][Dab][Cha]V[Orn]C[Orn][Aun]-OH; thioether N-14) | 0.0148
